Drawing on ChEMBL document CHEMBL1141766, “Isoprenylated naphthoquinone dimers firmianones A, B, and C from Firmiana platanifolia” (2005), this text covers EC50 for 2 compounds.

Structures are written as SMILES. pEC50: −log10 of the molar value.

The subject of this experiment is P388. Briefly: Cytotoxicity against mouse P388 cells. In kind it is functional. The following applies: read-out: ED50 (the source's name).

In the case of `CC1=C[C@@H]2c3c(c(O)c4ccccc4c3O[C@@H]3O[C@H](CO)[C@@H](O)[C@H](O)[C@H]3O)[C@@]3(O)c4cccc(O)c4C(=O)[C@]2(/C=C/C(C)(C)O)[C@@]3(O)C1` [FIRMIANONE B], the pEC50 was 5.09. In the case of `CC1=C[C@@H]2c3c(c(O)c4ccccc4c3O[C@@H]3O[C@H](CO)[C@@H](O)[C@H](O)[C@H]3O)[C@@]3(O)c4ccccc4C(=O)[C@]2(/C=C/C(C)(C)O)[C@@]3(O)C1` [FIRMIANONE A], the pEC50 is 5.19.
